# From patent publication US20240115649A1, “CASPASE INHIBITION TO ENHANCE REGENERATION AND REPAIR AFTER SKIN OR GUT INJURY AND TO TREAT BACTERIAL OR VIRAL INFECTIONS” (The Johns Hopkins University, priority 2020, published 2024)
# Where a SMILES comes first, the peptide text is derived from it. The star is where a group is joined. Cbz = O=C(OCc1ccccc1)*; CH2F = FC*
# Tests used:
# human keratinocytes = test: Human keratinocyte culture (qRT-PCR, immunostaining)
# Experimental: Human and Mouse Keratinocyte Isolation and Culture.
# Quantitative real-time PCR (qRT-PCR).
# Immunofluorescence, immunocytochemistry, and immunohistochemistry. […] After washing and permeabilization in TBS-T universal buffer (0.2% Triton X-100 in tris-buffered saline), sections were blocked at room-temperature in 5% goat, donkey or fetal bovine serum with 1% bovine serum albumin. […] Following subsequent washing, sections were incubated in fluorescent-dye conjugated secondary antibodies diluted in antibody diluent for 1 hour at room temperature. After final washing, sections were mounted with […] ® Hardset™ Antifade Mounting Medium with DAPI (Vector Laboratories, H-1500) for nuclear staining. Human keratinocytes were prepared similarly, with the exception of antigen retrieval. All slides were imaged using either the DFC365FX (Leica) or Eclipse E-800 (Nikon) at 10×, 20×, and 40× magnifications.
# [1] = tested on: mouse epithelial keratinocytes; test: Mouse epithelial keratinocyte culture (qRT-PCR, immunoblot); settings: for IL-36α protein (whole-cell lysates): mouse epithelial keratinocytes
# neogenic hair follicles = test: Wound Induced Hair Neogenesis (WIHN) assay; assay type: in vivo, mice
# Experimental: Wound Induced Hair Neogenesis (WIHN) Assay. All in vivo experimental surgical procedures were performed as previously characterized ^1,2,6-8. In short, after exposure to vaporizing anesthesia (Baxter, Isoflurane) the dorsal side of male and female 3-week-old (21 days) mice were shaved at approximately 8-10 g of weight. Using surgical scissors, approximately 1.26 cm^2×1.25 cm^2 of skin was excised creating wounds deep into the fascia. At 3 days post-wounding, a single dose (50 μl) of 100 μg/mL high molecular weight (HMW) polyinosinic-polycytidylic acid (Poly (I:C)) (Invivogen, tlrl-pic) was administered underneath the scab site via injection in both wild-type and transgenic mice as previously described^2,8. For functional experiments characterizing IL-36 on WIHN, a single dose (50 μl) of 1 μg/mL recombinant mouse IL-36α protein (R&D Systems, 7059-ML/CF) was injected underneath the scab site at 7 days post-wounding. For rescue experiments using the small molecule, broad spectrum pan-caspase inhibitor, 20 ul of 5 mg/mL Q-VD-OPh (in DMSO) was diluted 130 μL of phosphate-buffered saline (PBS) (1.33 mM final concentration) and injected intraperitoneally in mice 24 hours prior to wounding and approximately 10 days after wounding (scab detachment).
# Immunofluorescence, immunocytochemistry, and immunohistochemistry.
# BMDMs = test: BMDM cultures with live S. aureus ± caspase inhibitors; settings: live S. aureus 6 hours, Q-VD-OPH 10 μg/mL, Emricasan 9 μg/mL
# mouse neutrophils = test: Neutrophil cultures with live S. aureus ± caspase inhibitors; settings: live S. aureus 6 hours, Q-VD-OPH 10 μg/mL, Emricasan 9 μg/mL
# [2] = RNase L siRNA transfected human keratinocytes, 10 μg/ml
# [3] = no significant differences vs no treatment
molecule,measurement,setting,value
CC(C)(O)c1coc(S(=O)(=O)NC(=O)Nc2c3c(cc4c2CCC4)CCC3)c1 [MCC950],regeneration (morphogenesis) markers,"human keratinocytes; MCC950 100 μM, further increased by exogenous dsRNA addition",greater regeneration markers than controls
COC(=O)CC[C@H](NC(=O)[C@H](Cc1c[nH]c2ccccc12)NC(=O)OCc1ccccc1)C(=O)N[C@@H](Cc1cnc[nH]1)C(=O)N[C@@H](CC(=O)OC)C(=O)CF [Z-WEHD-FMK] (Cbz-WE(OMe)HD(OMe)-CH2F),IL-36 receptor (IL36r) expression,[1]; 48 hrs treatment,not affected
same,IL-36 receptor antagonist (IL-36m) protein or mRNA levels,[1]; 48 hrs treatment,not affected
same,Tlr3 expression,[1]; 48 hrs treatment,elevated
same,caspase gene mRNA (inflammatory caspases 1 and 4),[1]; 48 hrs treatment,elevated
same,IL-36α protein (whole-cell lysates),[1],increased
polyinosinic-polycytidylic acid [poly (I:C)],WIHN (hair follicle regeneration),neogenic hair follicles; Il36r^−/− mice,not responsive
same,WIHN,"neogenic hair follicles; Rnasel^−/− mice, poly (I:C) under the scab 3 days post-wounding",intact super-increase
same,differentiation markers,human keratinocytes; [2],inhibits differentiation markers
same,morphogenesis markers,human keratinocytes; [2],induces multiple morphogenesis markers
same,Il36α and Casp1 levels,"[1]; after siRNA-mediated RNase L loss, poly (I:C) 10 μg/ml, 48 hrs",boosted
C[C@H](NC(=O)C(=O)Nc1ccccc1C(C)(C)C)C(=O)N[C@@H](CC(=O)O)C(=O)COc1c(F)c(F)cc(F)c1F [Emricasan],percentages of TNF+ BMDMs,BMDMs,33.53%
same,viable cells (Zombie UV negative cells),BMDMs; [3],~80%
same,IL-36α protein (whole-cell lysates),[1],increased
same,percentages of TNF+ neutrophils,mouse neutrophils,25.47%
same,viable cells (Zombie UV negative cells),mouse neutrophils; [3],~50%
"rmIL-36a: recombinant mouse IL-36α protein (R&D Systems, 7059-ML/CF) (protein, UniProt Q9JLA2 8-160, looked up) Interleukin-36 alpha: RAASPSLRHVQDLSSRVWILQNNILTAVPRKEQTVPVTITLLPCQYLDTLETNRGDPTYMGVQRPMSCLFCTKDGEQPVLQLGEGNIMEMYNKKEPVKASLFYHKKSGTTSTFESAAFPGWFIAVCSKGSCPLILTQELGEIFITDFEMIVVH",increase in the number of neogenic hair follicles,"neogenic hair follicles; 50 μl of 1 μg/mL injected underneath the scab at 7 days post-wounding, vs vehicle-treated controls",> 2 fold
"recombinant IL-36α: recombinant IL-36α used to treat human keratinocytes (protein, UniProt Q9UHA7 6-158, looked up) Interleukin-36 alpha: KIDTPQQGSIQDINHRVWVLQDQTLIAVPRKDRMSPVTIALISCRHVETLEKDRGNPIYLGLNGLNLCLMCAKVGDQPTLQLKEKDIMDLYNQPEPVKSFLFYHSQSGRNSTFESVAFPGWFIAVSSEGGCPLILTQELGKANTTDFGLTMLF",WNT7B mRNA expression,human keratinocytes; qRT-PCR,promotes WNT7B expression
